This assay has as its target Mammalian DNA-PK (Homo sapiens, UniProt P78527). The assay can be described thus: DNA-PK inhibition assay (ELISA of p53 Ser15 phosphorylation of GST-p53N66). In kind it is biochemical, Mammalian (isolated from HeLa cell nuclear extract). The conditions noted are these: DNA-PK from HeLa nuclear extract; mean value; read-out: mean IC50. The method, then:
In order to assess the inhibitory action of the compounds against DNA-PK in vitro, the following assay was used to determine IC50 values.
To the assay mix, varying concentrations of inhibitor (in DMSO at a final concentration of 1%) were added. After 10 minutes of incubation, ATP was added to give a final concentration of […] along with a 30 mer double stranded DNA oligonucleotide (final concentraion of 0.5 ng/ml) to initiate the reaction. After 1 hour with shaking, 150 μl of phosphate buffered saline (PBS) was added to the reaction and 5 μl then transferred to a 96 well opaque white plate containing 45 μl of PBS per well where the GSTp53N66 substrate was allowed to bind to the wells for 1 hour. To detect the phosphorylation event on the serine 15 residue of p53 elicited by DNA-PK a p53 phosphoserine-15 antibody (Cell Signaling Technology) was used in a basic ELISA procedure. An anti-rabbit HRP conjugated secondary antibody (Pierce) was then employed in the ELISA before the addition of chemiluminescence reagent. (NEN Renaissance) to detect the signal as measured by chemiluminescent counting via a TopCount NXT (Packard).
The enzyme activity for each compound is then calculated using the following equation: […]
The results are discussed below as IC50 values (the concentration at which 50% of the enzyme activity is inhibited). These are determined over a range of different concentrations, normally from 10 μM down to 0.001 μM. Such IC50 values are used as comparative values to identify increased compound potencies.
(ELISA stands for enzyme-linked immunosorbent assay.)

pIC50: −log10 of the molar value.

A word on the pIC50: it is the IC50 on a negative log10 scale, so that one unit is a factor of ten. Turning to `O=c1cc(N2CCOCC2)oc2c(-c3ccc(CNCCO)c4c3sc3ccccc34)cccc12` [4c], the pIC50 is 7.65.

On to `O=c1cc(N2CCOCC2)oc2c(-c3ccc(CNCC4CCCO4)c4c3sc3ccccc34)cccc12` (centres unmarked) [4a], for which the pIC50 is 7.51.

For `CN(C)[C@@H]1CCN(Cc2ccc(-c3cccc4c(=O)cc(N5CCOCC5)oc34)c3sc4ccccc4c23)C1` [4bv], the negative logarithm of the IC50 (pIC50) was 8.69.

For the compound `CC(NCc1ccc(-c2cccc3c(=O)cc(N4CCOCC4)oc23)c2sc3ccccc3c12)c1nccs1` (centres unmarked) [4bb], the negative logarithm of the IC50 (pIC50) was 6.11.

As to `Cc1cc(NCc2ccc(-c3cccc4c(=O)cc(N5CCOCC5)oc34)c3sc4ccccc4c23)on1` [4bg], the negative logarithm of the IC50 (pIC50) was 6.52.

Consider `COC1CCN(Cc2ccc(-c3cccc4c(=O)cc(N5CCOCC5)oc34)c3sc4ccccc4c23)CC1` [4am], for which the pIC50 was 6.38.

Take `CN(C)C1CCCN(Cc2ccc(-c3cccc4c(=O)cc(N5CCOCC5)oc34)c3sc4ccccc4c23)C1` (centres unmarked) [4au]: the pIC50 is 7.70.

As to `CN(Cc1ccccc1)Cc1ccc(-c2cccc3c(=O)cc(N4CCOCC4)oc23)c2sc3ccccc3c12` [4s], the negative logarithm of the IC50 (pIC50) was 6.03.

As to `O=c1cc(N2CCOCC2)oc2c(-c3ccc(CN4CCC[C@H]4CO)c4c3sc3ccccc34)cccc12` [4by], the negative-log IC50 (pIC50) is 7.01.

With `O=C(C1CC1)N1CCN(Cc2ccc(-c3cccc4c(=O)cc(N5CCOCC5)oc34)c3sc4ccccc4c23)CC1` [4ag], the pIC50 was 6.60.

For `CC(=O)N1CCN(Cc2ccc(-c3cccc4c(=O)cc(N5CCOCC5)oc34)c3sc4ccccc4c23)CC1` [4z], the pIC50 was 7.11.

As for `O=c1cc(N2CCOCC2)oc2c(-c3ccc(CNCc4cc[nH]n4)c4c3sc3ccccc34)cccc12` [4be], the pIC50 was 7.04.

`NC1CCCN(Cc2ccc(-c3cccc4c(=O)cc(N5CCOCC5)oc34)c3sc4ccccc4c23)C1` (centres unmarked) [4cq]: the pIC50 was 7.44.

As for `CN(C)C1CCN(Cc2ccc(-c3cccc4c(=O)cc(N5CCOCC5)oc34)c3sc4ccccc4c23)CC1` [4ae], the pIC50 was 6.75.

For `COC[C@H]1CCCN1Cc1ccc(-c2cccc3c(=O)cc(N4CCOCC4)oc23)c2sc3ccccc3c12` [4bf], the negative-log IC50 (pIC50) was 6.14.

On to `Cn1nccc1CNCc1ccc(-c2cccc3c(=O)cc(N4CCOCC4)oc23)c2sc3ccccc3c12` [4bl], for which the negative-log IC50 (pIC50) is 7.34.

In the case of `O=c1cc(N2CCOCC2)oc2c(-c3ccc(CN4CCOCC4)c4c3sc3ccccc34)cccc12` [4ai], the pIC50 was 6.99.

As for `CC(CN(C)C)NCc1ccc(-c2cccc3c(=O)cc(N4CCOCC4)oc23)c2sc3ccccc3c12` (centres unmarked) [4bk], the negative-log IC50 (pIC50) is 7.49.

Turning to `O=c1cc(N2CCOCC2)oc2c(-c3ccc(CN4CCCCC4)c4c3sc3ccccc34)cccc12` [4cs], the pIC50 is 6.05.

In the case of `O=c1cc(N2CCOCC2)oc2c(-c3ccc(CNCc4ccco4)c4c3sc3ccccc34)cccc12` [4bh], the negative-log IC50 (pIC50) is 6.65.

As for `COCC1CCCN1Cc1ccc(-c2cccc3c(=O)cc(N4CCOCC4)oc23)c2sc3ccccc3c12` (centres unmarked) [4at], the negative-log IC50 (pIC50) was 6.05.

Regarding `C[C@@H]1CN(Cc2ccc(-c3cccc4c(=O)cc(N5CCOCC5)oc34)c3sc4ccccc4c23)C[C@H](C)O1` [4q], the negative logarithm of the IC50 (pIC50) is 7.08.

With `O=c1cc(N2CCOCC2)oc2c(-c3ccc(CN4CCSCC4)c4c3sc3ccccc34)cccc12` [4bz], the pIC50 was 6.59.

`N[C@@H]1CCCC[C@@H]1NCc1ccc(-c2cccc3c(=O)cc(N4CCOCC4)oc23)c2sc3ccccc3c12` [4bn]: the negative-log IC50 (pIC50) is 6.94.

Consider `Cc1n[nH]c(NCc2ccc(-c3cccc4c(=O)cc(N5CCOCC5)oc34)c3sc4ccccc4c23)n1` [4bi], for which the pIC50 is 7.03.

Turning to `O=c1cc(N2CCOCC2)oc2c(-c3ccc(CNCCN4CCCCC4)c4c3sc3ccccc34)cccc12` [4co], the pIC50 is 7.20.

Take `CN(C)C1CCN(Cc2ccc(-c3cccc4c(=O)cc(N5CCOCC5)oc34)c3sc4ccccc4c23)C1` (centres unmarked) [4ah]: the pIC50 was 8.92.

For `O=c1cc(N2CCOCC2)oc2c(-c3ccc(CN4CCCC(C(F)(F)F)C4)c4c3sc3ccccc34)cccc12` (centres unmarked) [4ap], the pIC50 is 5.67.

On to `O=c1cc(N2CCOCC2)oc2c(-c3ccc(CN4CCC(C(F)(F)F)CC4)c4c3sc3ccccc34)cccc12` [4ao], for which the negative logarithm of the IC50 (pIC50) is 5.27.

With `CN(C)CC(C)(C)CNCc1ccc(-c2cccc3c(=O)cc(N4CCOCC4)oc23)c2sc3ccccc3c12` [4ay], the negative-log IC50 (pIC50) was 6.91.

For the compound `O=c1cc(N2CCOCC2)oc2c(-c3ccc(CNCc4cccnc4)c4c3sc3ccccc34)cccc12` [4ch], the pIC50 is 7.01.

Regarding `O=c1cc(N2CCOCC2)oc2c(-c3ccc(CN4CCNCC4)c4c3sc3ccccc34)cccc12` [4k], the negative-log IC50 (pIC50) was 8.15.

For `CN(Cc1ccc(-c2cccc3c(=O)cc(N4CCOCC4)oc23)c2sc3ccccc3c12)Cc1cncn1C` [4cd], the negative-log IC50 (pIC50) is 7.16.

With `CN1CCCCC1CNCc1ccc(-c2cccc3c(=O)cc(N4CCOCC4)oc23)c2sc3ccccc3c12` (centres unmarked) [4bc], the negative logarithm of the IC50 (pIC50) is 7.98.

On to `O=c1cc(N2CCOCC2)oc2c(-c3ccc(CN4CCCC(F)(F)C4)c4c3sc3ccccc34)cccc12` [4az], for which the pIC50 is 5.69.

As for `C=CCNCc1ccc(-c2cccc3c(=O)cc(N4CCOCC4)oc23)c2sc3ccccc3c12` [4i], the negative logarithm of the IC50 (pIC50) is 6.05.

`O=c1cc(N2CCOCC2)oc2c(-c3ccc(CNn4cnnc4)c4c3sc3ccccc34)cccc12` [4cp]: the pIC50 is 7.02.

For `O=c1cc(N2CCOCC2)oc2c(-c3ccc(CNCc4ccncc4)c4c3sc3ccccc34)cccc12` [4cg], the pIC50 is 6.86.

`O=c1cc(N2CCOCC2)oc2c(-c3ccc(CN4CCCO4)c4c3sc3ccccc34)cccc12` [4as]: the pIC50 was 7.16.

In the case of `CCN(CC)Cc1ccc(-c2cccc3c(=O)cc(N4CCOCC4)oc23)c2sc3ccccc3c12` [4y], the pIC50 was 5.71.

With `CN(C)[C@H]1CCN(Cc2ccc(-c3cccc4c(=O)cc(N5CCOCC5)oc34)c3sc4ccccc4c23)C1` [4bu], the pIC50 is 8.88.

On to `CN1CCC(NCc2ccc(-c3cccc4c(=O)cc(N5CCOCC5)oc34)c3sc4ccccc4c23)CC1` [4cl], for which the pIC50 is 7.33.

Consider `O=c1cc(N2CCOCC2)oc2c(-c3ccc(CNCc4ccccn4)c4c3sc3ccccc34)cccc12` [4ci], for which the negative logarithm of the IC50 (pIC50) was 6.75.

With `O=c1cc(N2CCOCC2)oc2c(-c3ccc(CNC4CCS(=O)(=O)C4)c4c3sc3ccccc34)cccc12` (centres unmarked) [4bd], the negative logarithm of the IC50 (pIC50) was 6.90.

For `CC1CN(Cc2ccc(-c3cccc4c(=O)cc(N5CCOCC5)oc34)c3sc4ccccc4c23)CCN1C` (centres unmarked) [4cb], the negative logarithm of the IC50 (pIC50) is 8.43.

Take `O=c1cc(N2CCOCC2)oc2c(-c3ccc(CNCc4nccs4)c4c3sc3ccccc34)cccc12` [4cj]: the pIC50 is 6.71.

For the compound `C[C@H]1COCCN1Cc1ccc(-c2cccc3c(=O)cc(N4CCOCC4)oc23)c2sc3ccccc3c12` [4aj], the pIC50 is 6.39.

As for `COc1ccc(N2CCN(Cc3ccc(-c4cccc5c(=O)cc(N6CCOCC6)oc45)c4sc5ccccc5c34)CC2C)cc1` (centres unmarked) [4o], the pIC50 was 6.30.

With `O=c1cc(N2CCOCC2)oc2c(-c3ccc(CN4CCCCO4)c4c3sc3ccccc34)cccc12` [4bo], the pIC50 is 5.68.

Consider `CCN1CCN(Cc2ccc(-c3cccc4c(=O)cc(N5CCOCC5)oc34)c3sc4ccccc4c23)CC1` [4aq], for which the negative logarithm of the IC50 (pIC50) was 8.25.

`COCCN1CCN(Cc2ccc(-c3cccc4c(=O)cc(N5CCOCC5)oc34)c3sc4ccccc4c23)CC1` [4t]: the negative logarithm of the IC50 (pIC50) was 8.10.

In the case of `O=c1cc(N2CCOCC2)oc2c(-c3ccc(CN4CCCNCC4)c4c3sc3ccccc34)cccc12` [4cr], the pIC50 was 8.18.

For the compound `CN1CCCC(NCc2ccc(-c3cccc4c(=O)cc(N5CCOCC5)oc34)c3sc4ccccc4c23)C1` (centres unmarked) [4ck], the pIC50 was 7.79.

Take `CCN1CCCC1CNCc1ccc(-c2cccc3c(=O)cc(N4CCOCC4)oc23)c2sc3ccccc3c12` (centres unmarked) [4cn]: the pIC50 is 7.24.

As for `O=c1cc(N2CCOCC2)oc2c(-c3ccc(CN4CCC(F)(F)C4)c4c3sc3ccccc34)cccc12` [4ca], the negative logarithm of the IC50 (pIC50) is 6.00.

Regarding `O=c1cc(N2CCOCC2)oc2c(-c3ccc(CN4CCC(O)CC4)c4c3sc3ccccc34)cccc12` [4j], the pIC50 was 6.29.

As for `COC1CCCN(Cc2ccc(-c3cccc4c(=O)cc(N5CCOCC5)oc34)c3sc4ccccc4c23)C1` (centres unmarked) [4af], the negative logarithm of the IC50 (pIC50) was 6.63.

As for `CN(C)CCN(C)Cc1ccc(-c2cccc3c(=O)cc(N4CCOCC4)oc23)c2sc3ccccc3c12` [4u], the negative logarithm of the IC50 (pIC50) is 7.56.

On to `O=c1cc(N2CCOCC2)oc2c(-c3ccc(CNCCc4ccccc4)c4c3sc3ccccc34)cccc12` [4ct], for which the pIC50 is 6.28.

Turning to `O=c1cc(N2CCOCC2)oc2c(-c3ccc(CN4CC[C@H](F)C4)c4c3sc3ccccc34)cccc12` [4bw], the pIC50 is 6.36.

Consider `O=c1cc(N2CCOCC2)oc2c(-c3ccc(CNC4=NCCS4)c4c3sc3ccccc34)cccc12` [4cf], for which the negative logarithm of the IC50 (pIC50) was 6.76.

On to `O=c1cc(N2CCOCC2)oc2c(-c3ccc(CN4CCC[C@@H]4CO)c4c3sc3ccccc34)cccc12` [4bt], for which the pIC50 was 6.76.

With `Cn1cccc1CNCc1ccc(-c2cccc3c(=O)cc(N4CCOCC4)oc23)c2sc3ccccc3c12` [4ce], the negative-log IC50 (pIC50) was 6.54.

`O=c1cc(N2CCOCC2)oc2c(-c3ccc(CN4CCC(CO)CC4)c4c3sc3ccccc34)cccc12` [4p]: the pIC50 is 7.02.

Consider `COc1cccc(N2CCN(Cc3ccc(-c4cccc5c(=O)cc(N6CCOCC6)oc45)c4sc5ccccc5c34)CC2)c1` [4n], for which the pIC50 is 6.01.

(Values after patent US20110130386A1, “DNA-PK INHIBITORS” (priority 2008, published 2011).)
